Results on eleven compounds are retold here after patent US20230227484A1, “PYRIMIDINE COMPOUND AS AXL INHIBITOR” (NANJING CHIA TAI TIANQING PHARMACEUTICAL CO., LTD., priority 2020, published 2023).

The target of the test is T1, AXL kinase (Homo sapiens, UniProt P30530).
T1 construct: purchased Carna 08-107
T1 sequence (P30530 473-894 limits assumed): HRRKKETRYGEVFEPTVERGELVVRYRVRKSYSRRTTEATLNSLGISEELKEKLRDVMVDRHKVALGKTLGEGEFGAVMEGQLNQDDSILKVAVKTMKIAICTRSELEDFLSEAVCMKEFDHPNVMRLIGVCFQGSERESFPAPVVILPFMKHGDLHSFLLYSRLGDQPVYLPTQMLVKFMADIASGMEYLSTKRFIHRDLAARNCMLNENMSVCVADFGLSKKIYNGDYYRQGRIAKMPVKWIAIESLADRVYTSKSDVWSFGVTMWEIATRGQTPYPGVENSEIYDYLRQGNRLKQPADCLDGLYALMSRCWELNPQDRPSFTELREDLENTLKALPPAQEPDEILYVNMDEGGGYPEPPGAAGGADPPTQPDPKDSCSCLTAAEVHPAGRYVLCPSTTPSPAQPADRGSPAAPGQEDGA
Briefly: Inhibitory activity of compound against AXL kinase (HTRF KinEASE). In kind it is biochemical. The following applies: AXL enzyme (Carna, 08-107), ATP 15 μM; "<" means below detection limit of the test. As for the experimental part:
a) AXL enzyme (Carna, 08-107) configuration and addition: a 1×enzyme buffer (200 μL of Enzymatic buffer kinase 5×, 10 μL of 500 mM MgCl2, 10 μL of 100 mM DTT and 6.26 μL of 2500 nM SEB are added with […] of H2O, and prepared into 1 ml of 1× enzyme buffer) is used. AXL enzyme is diluted from 33.33 ng/uL to 0.027 ng/μL (1.67×, final conc.=0.016 ng/uL), a BioTek (MultiFlo FX) automatic liquid dispenser is used, and 6 μL of enzyme solution having a 1.67-fold final concentration is added respectively to compound wells and positive control wells; and 6 μL of 1×Enzymatic buffer is added to negative control wells.
b) Compound preparation and addition: the compounds and positive drugs prepared in the examples are diluted from 10 mM to 100 μM by DMSO, and titrated with a compound titrator (Tecan, D300e). The titrated solution is automatically sprayed by the titrator to each well to reach a required concentration, wherein the first concentration is 1 μM, and after ½ log dilution, a total of 8 concentrations are obtained. The resulting mixture is centrifuged at 2500 rpm for 30 s and incubated at room temperature for 15 min.
c) Preparation and addition of ATP and substrate: ATP (Sigma, A7699) is diluted with 1× enzyme buffer from 10 mM to 75 μM (5×), and the final concentration is 15 μM; the substrate TK Substrate 3-biotin (Cisbio, 61TK0BLC) is diluted with 1× enzyme buffer from 500 μM to 5 μM (5×), andthe final concentration is […]; ATP and the substrate are mixed in equal volume to obtain a mixed solution; the mixed solution is added to each well at 4 μL by using a BioTek automatic dispenser; centrifuged at 2500 rpm for 30 s, and reacted at 25° C. for 45 min.
d) Pirparation and addition of detection reagent: Streptavidin-XL665 (Cisbio, 610SAXLG) is diluted with HTRF KinEASE detection buffer (cisbio) from 16.67 μM to 250 nM (4×), and the final concentration is 62.5 nM; TK Antibody-Cryptate (Cisbio) is diluted with HTRF KinEASE detection buffer (cisbio) from 100× to 5×, and the final concentration is 1×; XL665 and Antibody are mixed in equal volume; the mixed solution is added to each well at 10 μL by using the BioTek automatic dispenser, centrifuged at 2500 rpm for 30 s, and reacted at 25° C. for 1 h. After the reaction is completed, the resulting product is detected by a multi-function plate reader HTR1p
GraphPad Prism 5 software log (inhibitor) vs. response-Variable slope is used to fit a dose-response curve to obtain the IC50 value of the compound to the inhibition of AXL kinase.
The calculation formula of the inhibition rate is as follows: […]

In turn, `COCc1ccc(Nc2nc(Nc3ccc4c(c3)CCC(N3CC5CC3C5)CC4)ncc2Cl)c(P(C)(C)=O)c1` (single isomer, unassigned) [Example 116 Isomer 116-2, (2-((2-((7-(2-azabicyclo[2.1.1]hexan-2-yl)-6,7,8,9-tetrahydro-5H-benzo[7]annulen-2-yl)amino)-5-chloropyrimidin-4-yl)amino)-5-(methoxymethyl)phenyl)dimethyl phosphine oxide] registered an IC50 of 96.8 nM.

As for `COc1ccc(Nc2nc(Nc3ccc4c(c3)CC[C@@H](N3CCCC3)CC4)ncc2Cl)c(P(C)(C)=O)c1` [Example 55, (S)-(2-((5-chloro-2-((7-(pyrrolidin-1-yl)-6,7,8,9-tetrahydro-5H-benzo[7]annulen-2-yl)amino)pyrimidin-4-yl)amino)-5-methoxyphenyl)dimethyl phosphine oxide], it took 3.14 nM to reach half-maximal inhibition (IC50).

`CC(C)Oc1ccc(Nc2nc(Nc3ccc4c(c3)CC[C@@H](N3CCCC3)CC4)ncc2Cl)c(P(C)(C)=O)c1` [Example 114] registered a concentration for half-maximal inhibition (IC50) of 2.03 nM.

In turn, `Cc1cnc(-c2ccccc2Nc2nc(Nc3ccc4c(c3)CC[C@@H](N3CCCC3)CC4)ncc2Cl)o1` [Example 17, (S)-5-chloro-N^4-(2-(5-methyloxazol-2-yl)phenyl)-N^2-(7-(pyrrolidin-1-yl)-6,7,8,9-tetrahydro-5H-benzo[7]annulen-2-yl)pyrimidine-2,4-diamine] returned an IC50 of 27.9 nM.

In turn, `CN(C)S(=O)(=O)c1cccc(Nc2nc(Nc3ccc4c(c3)CC[C@@H](N3CCCC3)CC4)ncc2Cl)c1` [Example 2, (S)-3-((5-chloro-2-((7-(pyrrolidin-1-yl)-6,7,8,9-tetrahydro-5H-benzo[7]annulen-2-yl)amino)pyrimidin-4-yl)amino)-N,N-dimethyl benzenesulfonamide] yielded a 50% inhibitory concentration (IC50) of 13.4 nM.

The compound `CC(C)Oc1ccccc1Nc1nc(Nc2ccc3c(c2)CC[C@@H](N2CCCC2)CC3)ncc1Cl` [Example 8, (S)-5-chloro-4-(2-isopropoxyl)anilino-2-(7-(pyrrolidin-1-yl)-6,7,8,9-tetrahydro-5H-benzo[7]annulen-2-yl)pyrimidine] returned an IC50 of 8.28 nM. This IC50 lies about 1.6-fold lower than the previous one.

`[2H]c1ccc(Nc2nc(Nc3ccc4c(c3)CC[C@@H](N3CCCC3)CC4)ncc2Cl)c(P(C)(C)=O)c1` [Example 111, (S)-(2-((5-chloro-2-((7-(pyrrolidin-1-yl)-6,7,8,9-tetrahydro-5H-benzo[7]annulen-2-yl)amino)pyrimidin-4-yl)amino)phenyl-5-d)dimethyl phosphine oxide] gave an IC50 of 1.81 nM.

`CN(C)S(=O)(=O)c1ccc(Nc2nc(Nc3ccc4c(c3)CC[C@@H](N3CCCC3)CC4)ncc2Cl)cc1` [Example 3, (S)-4-((5-chloro-2-((7-(pyrrolidin-1-yl)-6,7,8,9-tetrahydro-5H-benzo[7]annulen-2-yl)amino)pyrimidin-4-yl)amino)-N,N-dimethyl benzenesulfonamide] had an IC50 of 23.6 nM.

In the case of `COc1cc(Nc2nc(Nc3ccc4c(c3)CC[C@@H](N3CCCC3)CC4)ncc2Cl)c(P(C)(C)=O)cc1F` [Example 131, (S)-(2-((5-chloro-2-((7-(pyrrolidin-1-yl)-6,7,8,9-tetrahydro-5H-benzo[7]annulen-2-yl)amino)pyrimidin-4-yl)amino)-5-fluoro-4-methoxylphenyl)dimethyl phosphine oxide], the IC50 was determined as 207 nM.

Regarding `[2H]C([2H])([2H])P(=O)(c1cc(F)ccc1Nc1nc(Nc2ccc3c(c2)CC[C@@H](N2CCCC2)CC3)ncc1Cl)C([2H])([2H])[2H]` [Example 57, (S)-(2-((5-chloro-2-((7-(pyrrolidin-1-yl)-6,7,8,9-tetrahydro-5H-benzo[7]annulen-2-yl)amino)pyrimidin-4-yl)amino)-5-fluorophenyl)bis(methyl-d3) phosphine oxide], the IC50 was determined as 6.27 nM.

`CNC(=O)c1cc(C(F)(F)F)ccc1Nc1nc(Nc2ccc3c(c2)CC[C@@H](N2CCCC2)CC3)ncc1Cl` [Example 35, (S)-2-((5-chloro-2-((7-(pyrrolidin-1-yl)-6,7,8,9-tetrahydro-5H-benzo[7]annulen-2-yl)amino)pyrimidin-4-yl)amino)-N-methyl-5-(trifluoromethyl)benzamide] registered an IC50 of 1.21 nM.
